Legend:
Experiment in all cases: NCI one-dose assay
786-0 = type: cell-based, human; conditions: Homo sapiens, 786-0, 786-0, Renal cancer, read-out: Cell growth inhibition %
UO-31 = type: cell-based, human; conditions: Homo sapiens, UO-31, UO-31, Renal cancer, read-out: Cell growth inhibition %
HOP-92 = type: cell-based, human; conditions: Homo sapiens, HOP-92, HOP-92, Non-small cell lung cancer, read-out: Cell growth inhibition %
CAKI-1 = type: cell-based; conditions: Homo sapiens, CAKI-1, Renal cancer, read-out: Cell growth inhibition %
UACC-62 = type: cell-based; conditions: Homo sapiens, UACC-62, Melanoma, read-out: Cell growth inhibition %
UACC-257 = type: cell-based; conditions: Homo sapiens, UACC-257, Melanoma, read-out: Cell growth inhibition %
SF-539 = type: cell-based; conditions: Homo sapiens, SF-539, CNS cancer, read-out: Cell growth inhibition %
OVCAR-8 = type: cell-based; conditions: Homo sapiens, OVCAR-8, Ovarian cancer, read-out: Cell growth inhibition %
SW-620 = type: cell-based; conditions: Homo sapiens, SW-620, Colon cancer, read-out: Cell growth inhibition %
SK-MEL-5 = type: cell-based; conditions: Homo sapiens, SK-MEL-5, Melanoma, read-out: Cell growth inhibition %
SNB-75 = type: cell-based; conditions: Homo sapiens, SNB-75, CNS cancer, read-out: Cell growth inhibition %
SF-268 = type: cell-based; conditions: Homo sapiens, SF-268, CNS cancer, read-out: Cell growth inhibition %
MDA-MB-435 = type: cell-based; conditions: Homo sapiens, MDA-MB-435, Melanoma, read-out: Cell growth inhibition %
A549/ATCC = type: cell-based; conditions: Homo sapiens, Non-small cell lung cancer, read-out: Cell growth inhibition %
HT29 = type: cell-based; conditions: Homo sapiens, HT-29, HT29, Colon cancer, read-out: Cell growth inhibition %
HCT-15 = type: cell-based; conditions: Homo sapiens, HCT-15, Colon cancer, read-out: Cell growth inhibition %
HCT-116 = type: cell-based; conditions: Homo sapiens, HCT-116, Colon cancer, read-out: Cell growth inhibition %
SK-MEL-2 = type: cell-based; conditions: Homo sapiens, SK-MEL-2, Melanoma, read-out: Cell growth inhibition %
NCI-H322M = type: cell-based; conditions: Homo sapiens, Non-small cell lung cancer, read-out: Cell growth inhibition %
RPMI-8226 = type: cell-based; conditions: Homo sapiens, RPMI-8226, Leukemia, read-out: Cell growth inhibition %
SF-295 = type: cell-based; conditions: Homo sapiens, SF-295, CNS cancer, read-out: Cell growth inhibition %
M14 = type: cell-based; conditions: Homo sapiens, M14, Melanoma, read-out: Cell growth inhibition %
EKVX = type: cell-based; conditions: Homo sapiens, Non-small cell lung cancer, read-out: Cell growth inhibition %
KM12 = type: cell-based; conditions: Homo sapiens, KM12, Colon cancer, read-out: Cell growth inhibition %
CCRF-CEM = type: cell-based; conditions: Homo sapiens, Leukemia, read-out: Cell growth inhibition %
COLO 205 = type: cell-based; conditions: Homo sapiens, COLO 205, Colon cancer, read-out: Cell growth inhibition %
MDA-MB-231/ATCC = type: cell-based; conditions: Homo sapiens, Breast cancer, read-out: Cell growth inhibition %
HOP-62 = type: cell-based; conditions: Homo sapiens, HOP-62, Non-small cell lung cancer, read-out: Cell growth inhibition %
K-562 = type: cell-based; conditions: Homo sapiens, K562, K-562, Leukemia, read-out: Cell growth inhibition %
HS 578 T = type: cell-based; conditions: Homo sapiens, Breast cancer, read-out: Cell growth inhibition %
OVCAR-3 = type: cell-based; conditions: Homo sapiens, OVCAR-3, Ovarian cancer, read-out: Cell growth inhibition %
MOLT-4 = type: cell-based; conditions: Homo sapiens, MOLT-4, Leukemia, read-out: Cell growth inhibition %
U251 = type: cell-based; conditions: Homo sapiens, U-251, U251, CNS cancer, read-out: Cell growth inhibition %
T-47D = type: cell-based; conditions: Homo sapiens, T47D, Breast cancer, read-out: Cell growth inhibition %
HCC-2998 = type: cell-based; conditions: Homo sapiens, HCC-2998, Colon cancer, read-out: Cell growth inhibition %
HL-60(TB) = type: cell-based; conditions: Homo sapiens, Leukemia, read-out: Cell growth inhibition %

C=CCn1c(SC/C(=N\O)c2ccc(Cl)cc2)nnc1-c1c[nH]c2ccccc12 [Compound 7e, (Z)-2-((4-allyl-5-(1H-indol-3-yl)-4H-1,2,4-triazol-3-yl)thio)-1-(4-chlorophenyl) Ethanone Oxime]
inhibition at 10 µM (786-0): 11.1%
inhibition at 10 µM (UO-31): 39.5%
inhibition at 10 µM (HOP-92): 26.5%
inhibition at 10 µM (CAKI-1): 25.4%
inhibition at 10 µM (UACC-62): 35.8%
inhibition at 10 µM (UACC-257): 6.8%
inhibition at 10 µM (SF-539): 5.14%
inhibition at 10 µM (OVCAR-8): 16.8%
inhibition at 10 µM (SW-620): 9.5%
inhibition at 10 µM (SK-MEL-5): 27.4%
inhibition at 10 µM (SNB-75): 4.75%
inhibition at 10 µM (SF-268): -1.1%
inhibition at 10 µM (MDA-MB-435): 10.7%
inhibition at 10 µM (A549/ATCC): 6.38%
inhibition at 10 µM (HT29): 5.77%
inhibition at 10 µM (HCT-15): 21.7%
inhibition at 10 µM (HCT-116): 36.1%
inhibition at 10 µM (SK-MEL-2): 3.64%
inhibition at 10 µM (NCI-H322M): 11.9%
inhibition at 10 µM (RPMI-8226): 29.7%
inhibition at 10 µM (SF-295): 25%
inhibition at 10 µM (M14): 16%
inhibition at 10 µM (EKVX): 27.1%
inhibition at 10 µM (KM12): 4.48%
inhibition at 10 µM (CCRF-CEM): 17.2%
inhibition at 10 µM (COLO 205): 0.1%
inhibition at 10 µM (MDA-MB-231/ATCC): 23.1%
inhibition at 10 µM (HOP-62): 7.33%
inhibition at 10 µM (K-562): 39.3%
inhibition at 10 µM (HS 578 T): 12.7%
inhibition at 10 µM (OVCAR-3): -7.49%
inhibition at 10 µM (MOLT-4): 40%
inhibition at 10 µM (U251): 1.78%
inhibition at 10 µM (T-47D): 46.5%
inhibition at 10 µM (HCC-2998): 8.7%
inhibition at 10 µM (HL-60(TB)): 35%

C=CCn1c(SCC(=NO)c2ccc(OC)cc2)nnc1-c1c[nH]c2ccccc12 [Compound 7b, 2-((4-allyl-5-(1H-indol-3-yl)-4H-1,2,4-triazol-3-yl)thio)-1-(4-methoxyphenyl) Ethanone Oxime]
inhibition at 10 µM (786-0): 0.73%
inhibition at 10 µM (UO-31): 19.2%
inhibition at 10 µM (HOP-92): 8.91%
inhibition at 10 µM (CAKI-1): 1.5%
inhibition at 10 µM (UACC-62): 20.9%
inhibition at 10 µM (UACC-257): -11.5%
inhibition at 10 µM (SF-539): 4.37%
inhibition at 10 µM (OVCAR-8): 7.1%
inhibition at 10 µM (SW-620): -2.43%
inhibition at 10 µM (SK-MEL-5): 10.5%
inhibition at 10 µM (SNB-75): -12.9%
inhibition at 10 µM (SF-268): -0.98%
inhibition at 10 µM (MDA-MB-435): -10.6%
inhibition at 10 µM (A549/ATCC): -9.29%
inhibition at 10 µM (HT29): -5.85%
inhibition at 10 µM (HCT-15): 4.34%
inhibition at 10 µM (HCT-116): 23.6%
inhibition at 10 µM (SK-MEL-2): -7.88%
inhibition at 10 µM (NCI-H322M): -1.52%
inhibition at 10 µM (RPMI-8226): 14.9%
inhibition at 10 µM (SF-295): 16.6%
inhibition at 10 µM (M14): 2.83%
inhibition at 10 µM (EKVX): 7.49%
inhibition at 10 µM (KM12): -5.28%
inhibition at 10 µM (CCRF-CEM): 8.83%
inhibition at 10 µM (COLO 205): -11.9%
inhibition at 10 µM (MDA-MB-231/ATCC): 13.5%
inhibition at 10 µM (HOP-62): 2%
inhibition at 10 µM (K-562): 13.6%
inhibition at 10 µM (HS 578 T): 2.61%
inhibition at 10 µM (OVCAR-3): -9.23%
inhibition at 10 µM (MOLT-4): 8.18%
inhibition at 10 µM (U251): -5.26%
inhibition at 10 µM (T-47D): 26.4%
inhibition at 10 µM (HCC-2998): -8.35%
inhibition at 10 µM (HL-60(TB)): 16.1%

O/N=C(\CSc1nnc(-c2c[nH]c3ccccc23)n1-c1ccccc1)c1ccccc1 [Compound 7f, (Z)-2-((5-(1H-Indol-3-yl)-4-phenyl-4H-1,2,4-triazol-3-yl)thio)-1-phenylethanone Oxime]
inhibition at 10 µM (786-0): 17.9%
inhibition at 10 µM (UO-31): 71.6%
inhibition at 10 µM (HOP-92): 82.7%
inhibition at 10 µM (CAKI-1): 48.9%
inhibition at 10 µM (UACC-62): 59.2%
inhibition at 10 µM (UACC-257): 20.1%
inhibition at 10 µM (SF-539): 22.9%
inhibition at 10 µM (OVCAR-8): 43.2%
inhibition at 10 µM (SW-620): 47.2%
inhibition at 10 µM (SK-MEL-5): 84.1%
inhibition at 10 µM (SNB-75): 23.8%
inhibition at 10 µM (SF-268): 23.1%
inhibition at 10 µM (MDA-MB-435): 54.9%
inhibition at 10 µM (A549/ATCC): 46.9%
inhibition at 10 µM (HT29): 50.7%
inhibition at 10 µM (HCT-15): 74.8%
inhibition at 10 µM (HCT-116): 60%
inhibition at 10 µM (SK-MEL-2): 50.8%
inhibition at 10 µM (NCI-H322M): 35%
inhibition at 10 µM (RPMI-8226): 68.1%
inhibition at 10 µM (SF-295): 60.8%
inhibition at 10 µM (M14): 54.2%
inhibition at 10 µM (EKVX): 73.6%
inhibition at 10 µM (KM12): 59.9%
inhibition at 10 µM (CCRF-CEM): 59%
inhibition at 10 µM (COLO 205): 47.1%
inhibition at 10 µM (MDA-MB-231/ATCC): 31.3%
inhibition at 10 µM (HOP-62): 15.4%
inhibition at 10 µM (K-562): 67.6%
inhibition at 10 µM (HS 578 T): 33.3%
inhibition at 10 µM (OVCAR-3): 45%
inhibition at 10 µM (MOLT-4): 76.1%
inhibition at 10 µM (U251): 46.2%
inhibition at 10 µM (T-47D): 80.2%
inhibition at 10 µM (HCC-2998): 43.3%
inhibition at 10 µM (HL-60(TB)): 75.3%

COc1ccc(/C(CSc2nnc(-c3c[nH]c4ccccc34)n2-c2ccccc2)=N/O)cc1 [Compound 7g, (Z)-2-((5-(1H-Indol-3-yl)-4-phenyl-4H-1,2,4-triazol-3-yl)thio)-1-(4-methoxyphenyl) Ethanone Oxime]
inhibition at 10 µM (786-0): 40.3%
inhibition at 10 µM (UO-31): 81.8%
inhibition at 10 µM (HOP-92): 71.8%
inhibition at 10 µM (CAKI-1): 79.9%
inhibition at 10 µM (UACC-62): 68.6%
inhibition at 10 µM (UACC-257): 49.9%
inhibition at 10 µM (SF-539): 42.7%
inhibition at 10 µM (OVCAR-8): 70.3%
inhibition at 10 µM (SW-620): 60.6%
inhibition at 10 µM (SK-MEL-5): 110%
inhibition at 10 µM (SNB-75): 36.7%
inhibition at 10 µM (SF-268): 51.5%
inhibition at 10 µM (MDA-MB-435): 105%
inhibition at 10 µM (A549/ATCC): 65.8%
inhibition at 10 µM (HT29): 68%
inhibition at 10 µM (HCT-15): 84.7%
inhibition at 10 µM (HCT-116): 71.9%
inhibition at 10 µM (SK-MEL-2): 94.1%
inhibition at 10 µM (NCI-H322M): 63.6%
inhibition at 10 µM (RPMI-8226): 90.2%
inhibition at 10 µM (SF-295): 79%
inhibition at 10 µM (M14): 71.1%
inhibition at 10 µM (EKVX): 84.9%
inhibition at 10 µM (KM12): 78.8%
inhibition at 10 µM (CCRF-CEM): 83.5%
inhibition at 10 µM (COLO 205): 63.7%
inhibition at 10 µM (MDA-MB-231/ATCC): 39.3%
inhibition at 10 µM (HOP-62): 55%
inhibition at 10 µM (K-562): 81.2%
inhibition at 10 µM (HS 578 T): 61.2%
inhibition at 10 µM (OVCAR-3): 69.5%
inhibition at 10 µM (MOLT-4): 83.3%
inhibition at 10 µM (U251): 60.6%
inhibition at 10 µM (T-47D): 89.7%
inhibition at 10 µM (HCC-2998): 57.6%
inhibition at 10 µM (HL-60(TB)): 96.1%

Reference: PMC11859928, “Design, Synthesis, and Antiproliferative Activity of Novel Indole/1,2,4-Triazole Hybrids as Tubulin Polymerization Inhibitors” (Pharmaceuticals, 2025)
